Reference: patent US20240043395A1, “COMPOUNDS AND COMPOSITIONS AS MODULATORS OF TLR SIGNALING” (Neuropore Therapies, Inc., priority 2020, published 2024)

Legend:
[1] = target: T1, human TLR2 (Homo sapiens (Human), UniProt O60603); assay: HEK-Blue hTLR2 antagonism assay (SEAP reporter), agonist Pam2CSK4; assay type: cell-based; settings: HEK-Blue hTLR2 cells; Pam2CSK4 (TLR2/6 agonist) at approx. 3×EC50; 18 h; 8-point dilutions
Method: (§1) Synthetic diacylated lipoprotein (Pam2CSK4, TLR2/6 agonist) and synthetic triacylated lipoprotein (Pam3CSK4, TLR1/2 agonist) were obtained from InvivoGen and were dissolved in endotoxin-free water to a concentration 1 mg/mL, vortexed until complete solubilization, and stored in aliquots at −20° C. Prior to addition to cells, an aliquot of the dissolved ligand was vortexed shortly and then was diluted in medium to 25 ng/mL Pam2CSK4 or 1000 ng/mL Pam3CSK4.
(§2) Test compounds were solubilized fresh to 10-20 mM stocks in DMSO and sonicated for 5-10 minutes in a water bath sonicator. Serial dilutions were prepared in DMSO, and then diluted in medium. The final concentration of DMSO used in the assay was 1%.
(§3) HEK-Blue hTLR2 reporter cells (InvivoGen) are HEK-293 cells stably expressing both the human TLR2 gene and a secreted embryonic alkaline phosphatase (SEAP) reporter construct downstream of NFκB promotor sites. HEK-Blue hTLR2 reporters were cultured according to manufacturer's protocol using Dulbecco's Modified Eagle Medium (DMEM; Gibco) containing 1× GlutaMax (Gibco), 10% heat-inactivated Fetal Bovine Serum (Gibco), Pen-Strep (50 U/mL penicillin, 50 μg/mL streptomycin, Gibco), 100 μg/mL Normocin (InvivoGen), and the selective antibiotic, lx HEK-Blue Selection (InvivoGen). Quanti-Blue reagent (InvivoGen) for detection and quantification of secreted alkaline phosphatase was dissolved in 100 mL of endotoxin-free water, warmed to 37° C. for 30 minutes and then filtered using a 0.2 μm membrane.
(§4) On day 1, 50 μL of each test compound dilution in duplicates or a vehicle control was added to each well of a 96-well plate followed by addition of 150 μL of HEK-Blue hTLR2 cell suspension (1×10^5 cells/well) and incubated at 37° C./5% CO2 for 2 h. Next, 50 μL of an approximate 3×EC50 concentration of each agonist (Pam2CSK4 or Pam3CSK4) was added to the wells containing test compounds or the vehicle control. The plates were then incubated at 37° C./5% CO2 for 18 h. For each assay run, non-treated HEK-Blue hTLR2 cells were treated with serial dilutions of agonists to determine EC50 values for the respective run.
(§5) On day 2, secreted alkaline phosphatase (SEAP) activity was detected in cell culture supernatants. In brief, 20 μL was collected from each well and transferred to a 96-well plate. Next, 200 μL of Quanti-Blue detection reagent was added to each well. Plates were incubated at room temperature for 15 min and SEAP activity was assessed by spectrophotometer OD reading at 655 nm. […] IC50 values were calculated based on 8-point dilutions for each compound.

[2] = target: T1, human TLR2; assay: HEK-Blue hTLR2 antagonism assay (SEAP reporter), agonist Pam3CSK4; assay type: cell-based; settings: HEK-Blue hTLR2 cells; Pam3CSK4 (TLR1/2 agonist) at approx. 3×EC50; 18 h; 8-point dilutions
Method: as §1, §2, §3, §4, §5

T1 sequence (O60603 21-784): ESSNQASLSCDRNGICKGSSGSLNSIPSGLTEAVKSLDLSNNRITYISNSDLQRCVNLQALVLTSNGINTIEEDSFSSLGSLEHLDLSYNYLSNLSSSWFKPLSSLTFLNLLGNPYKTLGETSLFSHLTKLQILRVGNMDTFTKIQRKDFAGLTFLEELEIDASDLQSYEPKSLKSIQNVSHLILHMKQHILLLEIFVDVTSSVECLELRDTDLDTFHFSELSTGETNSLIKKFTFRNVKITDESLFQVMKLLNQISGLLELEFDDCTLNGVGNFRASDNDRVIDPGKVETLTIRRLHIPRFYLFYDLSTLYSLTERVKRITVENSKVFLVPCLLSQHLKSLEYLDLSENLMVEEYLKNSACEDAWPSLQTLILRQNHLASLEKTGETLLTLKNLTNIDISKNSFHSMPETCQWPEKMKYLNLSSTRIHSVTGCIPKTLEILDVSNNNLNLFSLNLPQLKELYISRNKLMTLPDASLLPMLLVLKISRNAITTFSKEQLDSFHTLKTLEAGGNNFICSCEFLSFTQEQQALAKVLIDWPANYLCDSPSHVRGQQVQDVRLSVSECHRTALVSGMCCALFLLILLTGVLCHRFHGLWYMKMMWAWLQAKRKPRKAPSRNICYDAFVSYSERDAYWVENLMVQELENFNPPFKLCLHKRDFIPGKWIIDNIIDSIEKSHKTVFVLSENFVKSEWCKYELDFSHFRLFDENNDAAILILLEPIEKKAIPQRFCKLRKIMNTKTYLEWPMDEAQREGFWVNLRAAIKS

IC50 [1] | IC50 [2] | Structure (SMILES)
4.7 µM | 1.6 µM | O=Cc1cc(C(=O)N2CCOC(c3ccc(N4CCCC4)cc3)C2)cc(F)c1O (racemic) [Compound 147, 3-fluoro-2-hydroxy-5-(2-(4-(pyrrolidin-1-yl)phenyl)morpholine-4-carbonyl)benzaldehyde]
7.5 µM | 3.1 µM | O=Cc1cc(C(=O)N2CCOC(c3cccc(N4CCCC4)c3)C2)cc(F)c1O (racemic) [Compound 150, rac-3-fluoro-2-hydroxy-5-(2-(3-(pyrrolidin-1-yl)phenyl)morpholine-4-carbonyl)benzaldehyde]
16.9 µM | 7 µM | C[C@H]1[C@H](c2ccc(N3CCCC3)cc2)OCCN1C(=O)c1cc(F)c(O)c(C=O)c1 (racemic) [Compound 151, rac-3-fluoro-2-hydroxy-5-((2S,3S)-3-methyl-2-(4-(pyrrolidin-1-yl)phenyl)morpholine-4-carbonyl)benzaldehyde]
14.2 µM | 5.7 µM | COc1ccc(C2CN(C(=O)c3cc(F)c(O)c(C=O)c3)CCS2)cc1 (racemic) [Compound 152, rac-3-fluoro-2-hydroxy-5-(2-(4-methoxyphenyl)thiomorpholine-4-carbonyl)benzaldehyde]
15.7 µM | 9.62 µM | O=Cc1cc(C(=O)N2CCCC2c2ccc(N3CCCC3)cc2)cc(F)c1O (racemic) [Compound 155, rac-3-fluoro-2-hydroxy-5-(2-(4-(pyrrolidin-1-yl)phenyl)pyrrolidine-1-carbonyl)benzaldehyde]
4.99 µM | 1.88 µM | O=Cc1cc(C(=O)N2CCO[C@@H](c3ccc(N4CCCC4)cc3)C2)cc(F)c1O (single isomer, unassigned) [Compound 148]
4.34 µM | 1.74 µM | O=Cc1cc(C(=O)N2CCO[C@H](c3ccc(N4CCCC4)cc3)C2)cc(F)c1O (single isomer, unassigned) [Compound 149]
3.7 µM | 3.2 µM | O=Cc1cc(C(=O)N2CC[C@H](c3ccc(N4CCCC4)cc3)C2)cc(F)c1O (single isomer, unassigned) [Compound 156]
3 µM | 2.2 µM | O=Cc1cc(C(=O)N2CC[C@@H](c3ccc(N4CCCC4)cc3)C2)cc(F)c1O (single isomer, unassigned) [Compound 157]
45.8 µM | 21.8 µM | O=Cc1cc(C(=O)Nc2nnc(N3CCCCC3)s2)cc(F)c1O [Compound 1, 3-fluoro-5-formyl-4-hydroxy-N-(5-(piperidin-1-yl)-1,3,4-thiadiazol-2-yl)benzamide]
2.3 µM | 1.7 µM | O=Cc1cc(C(=O)Nc2ncc(N3CCCCC3)s2)cc(F)c1O [Compound 3, 3-fluoro-5-formyl-4-hydroxy-N-(5-(piperidin-1-yl)thiazol-2-yl)benzamide]
5.3 µM | 2.7 µM | O=Cc1cc(C(=O)Nc2ncc(N3CCN(C4CC4)CC3)s2)cc(F)c1O [Compound 5, N-(5-(4-cyclopropylpiperazin-1-yl)thiazol-2-yl)-3-fluoro-5-formyl-4-hydroxybenzamide]
5.1 µM | 3.3 µM | O=Cc1cc(C(=O)Nc2nc(-c3ccccc3)cs2)cc(F)c1O [Compound 6, 3-fluoro-5-formyl-4-hydroxy-N-(4-phenylthiazol-2-yl)benzamide]
17.7 µM | 12.9 µM | O=Cc1cc(C(=O)Nc2cnc(N3CCCC3)s2)cc(F)c1O [Compound 8, 3-fluoro-5-formyl-4-hydroxy-N-(2-(pyrrolidin-1-yl)thiazol-5-yl)benzamide]
1.5 µM | 1 µM | O=Cc1cc(C(=O)Nc2ncc(-c3ccc(N4CCCC4)cc3)s2)cc(F)c1O [Compound 13, 3-fluoro-5-formyl-4-hydroxy-N-(5-(4-(pyrrolidin-1-yl)phenyl)thiazol-2-yl)benzamide]
18.2 µM | 18.7 µM | O=Cc1cc(C(=O)c2ccc(N3CCCC3)cc2)cc(F)c1O [Compound 14, 3-fluoro-2-hydroxy-5-(4-(pyrrolidin-1-yl)benzoyl)benzaldehyde]
